Experimental data reported in ChEMBL document CHEMBL1140684, “Phenylimidazole derivatives as new inhibitors of bacterial enoyl-ACP reductase FabK” (Bioorg Med Chem Lett, 2007).
Values after ≈ are worked out from the molar mass of the structure shown.

Key:
[1] = biological target: T1, Enoyl-(Acyl-carrier-protein) reductase (Streptococcus pneumoniae, UniProt Q9FBC5); assay: Inhibition of Streptococcus pneumoniae KU197 FabK
T1 sequence (Q9FBC5 whole entry): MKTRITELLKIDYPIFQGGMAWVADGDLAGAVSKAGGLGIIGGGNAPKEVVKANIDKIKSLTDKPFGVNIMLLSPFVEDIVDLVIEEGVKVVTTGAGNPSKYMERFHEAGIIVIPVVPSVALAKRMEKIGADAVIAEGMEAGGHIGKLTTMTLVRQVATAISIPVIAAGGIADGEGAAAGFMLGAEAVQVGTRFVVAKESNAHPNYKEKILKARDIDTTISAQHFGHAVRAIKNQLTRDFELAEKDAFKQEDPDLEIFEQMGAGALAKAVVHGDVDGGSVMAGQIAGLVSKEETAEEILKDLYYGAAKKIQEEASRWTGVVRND

[2] = test system: Streptococcus pneumoniae; assay: Antibacterial activity against Streptococcus pneumoniae KU197; format: functional
[3] = Inhibition of Escherichia coli FabI

| SMILES | IC50 [1] [µM] | MIC [2] [µg/mL] | IC50 [3] [µM] |
| --- | --- | --- | --- |
| CS(=O)(=O)c1ccc2nc(NC(=O)NCc3cccnc3)sc2c1 | 24 | > 32 |  |
| O=C(Nc1nc2ccccc2s1)OCc1nc2ccccc2[nH]1 | > 32 | > 32 |  |
| COc1cccc2sc(NC(=O)NCc3nc4ccccc4[nH]3)nc12 | > 32 |  | > 32 |
| COc1ccc2sc(NC(=O)NCc3nc4ccccc4[nH]3)nc2c1 | > 32 |  | > 32 |
| CS(=O)(=O)c1ccc2nc(NC(=O)NCc3nc4ccccc4[nH]3)sc2c1 | 0.76 | 4 (≈ 9.96 µM) | > 32 |
| CS(=O)(=O)c1ccc2nc(NC(=O)NCc3nc(-c4ccccc4)c[nH]3)sc2c1 | 0.14 | 0.5 (≈ 1.17 µM) | > 32 |
| O=C(CSc1nc2ccccc2[nH]1)Nc1nc2ccc(C(=O)O)cc2s1 | > 32 | > 32 |  |
| O=C(CSc1nc2ccccc2[nH]1)Nc1nc2ccccc2s1 | > 32 | > 32 |  |
| O=C(NCc1nc2ccccc2[nH]1)Nc1nc2ccccc2s1 | 28 | 32 (≈ 99 µM) | > 32 |
| CS(=O)(=O)c1ccc2nc(NC(=O)NCc3cccs3)sc2c1 | 24 | > 32 |  |
| O=C(O)CSc1nc2ccccc2[nH]1 | > 32 |  |  |
| Nc1nc2ccc(C(=O)O)cc2s1 | > 32 |  |  |
| COc1ccc2nc(NC(=O)NCc3nc4ccccc4[nH]3)sc2c1 | 7.6 | 16 (≈ 45.3 µM) | > 32 |
